# Measured values published in article PMC7195589 (Journal of Ginseng Research, 2019).
# Biological target: muscle-type creatine kinase (CK-MM) (Homo sapiens, UniProt P06732)
# Test: BLI direct binding response at […]
# Sequence of muscle-type creatine kinase (CK-MM) (P06732 whole entry): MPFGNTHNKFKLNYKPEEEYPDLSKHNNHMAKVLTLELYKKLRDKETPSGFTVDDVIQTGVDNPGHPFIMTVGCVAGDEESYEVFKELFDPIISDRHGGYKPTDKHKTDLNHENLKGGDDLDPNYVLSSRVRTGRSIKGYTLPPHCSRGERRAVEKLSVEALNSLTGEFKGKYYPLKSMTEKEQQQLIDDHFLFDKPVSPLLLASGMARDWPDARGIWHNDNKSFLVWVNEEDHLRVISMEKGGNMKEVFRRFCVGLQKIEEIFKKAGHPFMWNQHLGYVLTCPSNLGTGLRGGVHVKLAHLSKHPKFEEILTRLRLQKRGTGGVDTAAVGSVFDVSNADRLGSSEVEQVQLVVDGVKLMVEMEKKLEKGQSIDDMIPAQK
row,SMILES,BLI direct binding response at 300 uM (no KD)
1,"CC(C)=CCC[C@](C)(O[C@@H]1O[C@H](CO)[C@@H](O)[C@H](O)[C@H]1O)[C@H]1CC[C@]2(C)[C@@H]1[C@H](O)C[C@@H]1[C@@]3(C)CC[C@H](O)C(C)(C)[C@@H]3CC[C@]12C [GK, ginsenoside compound K]","F1, Rh2, K, and their aglycones (PPT and PPD) displayed gradually direct interaction with CK-MM"
2,"CC(C)=CCC[C@](C)(O)[C@H]1CC[C@]2(C)[C@@H]1[C@H](O)C[C@@H]1[C@@]3(C)CC[C@H](O)C(C)(C)[C@@H]3[C@@H](O)C[C@]12C [PPT, 20(S)-protopanaxatriol]","F1, Rh2, K, and their aglycones (PPT and PPD) displayed gradually direct interaction with CK-MM"
3,"CC(C)=CCC[C@](C)(O)[C@H]1CC[C@]2(C)[C@@H]1[C@H](O)C[C@@H]1[C@@]3(C)CC[C@H](O[C@@H]4O[C@H](CO)[C@@H](O)[C@H](O)[C@H]4O)C(C)(C)[C@@H]3CC[C@]12C [Rh2, ginsenoside Rh2]","F1, Rh2, K, and their aglycones (PPT and PPD) displayed gradually direct interaction with CK-MM"
